Tests used:
[1] = Temperature sensitivity of carboxylic acid extraction by 0.5 mol/kg Alamine 304 + 10% octanol in kerosene; format: physicochemical; conditions: distribution coefficient at 30°C divided by that at 75°C; for TS in Equilibrium with Aqueous Solutions of (mol/kg) 0.05: aqueous phase 0.05 mol/kg; for TS in Equilibrium with Aqueous Solutions of (mol/kg) 0.2: aqueous phase 0.2 mol/kg; for TS in Equilibrium with Aqueous Solutions of (mol/kg) 0.3: aqueous phase 0.3 mol/kg; for TS in Equilibrium with Aqueous Solutions of (mol/kg) 0.475: aqueous phase 0.475 mol/kg
Text: Referring now to said patents and the teachings thereof, one finds that the process taught therein utilizes the effect of temperature on phosphoric and carboxylic acid extraction by amine-based extractants. The term "amine" as used herein means water-immiscible amine, with a total of at least 20 carbon atoms on its chains. Said patents teach that such amine-based extractants (ABE) lose much of their extraction efficiency upon temperature elevation. This loss of efficiency is referred to as "temperature sensitivity of extraction" (TS). The magnitude of this TS can be represented by the ratio of the distribution coefficient at the lower temperature (DT1) and the distribution coefficient at the higher temperature (DT2). High TS provides for the purification and the concentration of carboxylic acids through altering the temperature between extraction and back-extraction. The acid is extracted from the fermentation liquor by an ABE at low temperature, and is then back-extracted with water at an elevated temperature. The aqueous solution obtained from that back-extraction is, in many cases, more concentrated than in the fermentation liquor. This process is referred to herein as the "temperature swing process" (TSP). The attraction of such processes is in the fact that the sole energy consumption is that of sensible heat, which saves a lot of the latent heat of water evaporation in the final concentration.

[2] = Distribution curves, extractant 1.2 mol/kg tricaprylyl amine (50%) and 3.8 mol/kg octanol (50%) (Fig. 3); format: physicochemical; conditions: extraction at 25°C and back-extraction at 96°C
Method: Fig. 3 illustrates distribution curves for extraction by an extractant composed of 1.2 mol/kg tricaprylyl amine (50%) and 3.8 mol/kg octanol (50%). The loading of the extractant in contact with 0.2 mol/kg ascorbic acid containing aqueous solution is about 0.5 mol/kg. […] The effect is even more impressive at the low concentrations end. […] A concentration factor of about 4 can be reached on extraction at 25°C and back-extraction at 96°C.

[3] = cited from earlier work
[4] = Extraction at 25°C and stripping at about 96°C with 50% w/w tridodecylamine and 50% w/w 1-n-octanol, recycled extractant; format: physicochemical; conditions: practically complete extraction with recycled extractant; feed 0.22 mol/kg
Method: […]. […] […]. The extractant was composed of 50% w/w tridodecylamine and 50% w/w of 1-n-octanol. The extraction was conducted at 25°C and the stripping at about 96°C.
Extraction as in Example 12 (100 g aqueous, 40 g extractant, 3 countercurrent stages) results in practically complete extraction of the acid to form an extract (loaded extractant) comprising 5% w/w lactic acid. […]. About two-thirds of the extracted lactic acid stays in the organic phase. Re-use of this organic phase in extraction from 2% lactic acid solutions results in low yields; not more than 20% of the acid is extracted. Increasing the number of stages in extraction has only a small effect. Near complete stripping and thus high yield in re-use of the organic phase requires about 150 g water per 40 g of extract, and 6-7 countercurrent stages. […]
Stripping the extract at 96°C with 35 g water results in an aqueous solution comprising 0.6 mol/kg ascorbic acid and an organic phase practically free of ascorbic acid. Re-use of this organic phase in extraction provides an extraction yield of at least 95% at the above conditions.

[5] = Distribution curves, extractant 1.2 mol/kg tricaprylyl amine and 2.4 mol/kg octanol in kerosene (Fig. 2); format: physicochemical; conditions: temperature gradient of 25-80°C

TS in Equilibrium with Aqueous Solutions of (mol/kg) 0.05 [1]	TS in Equilibrium with Aqueous Solutions of (mol/kg) 0.2 [1]	TS in Equilibrium with Aqueous Solutions of (mol/kg) 0.3 [1]	TS in Equilibrium with Aqueous Solutions of (mol/kg) 0.475 [1]	temperature sensitivity [2]	product diluted compared with the feed [4]	uphill concentration factor [5]	Compound	pKa [3]
6.0	3.1	2.6	2.2	Practically no temperature sensitivity	–	–	O=C(O)CC(O)(CC(=O)O)C(=O)O [Citric, citric acid]	–
1.9	1.5	1.4	1.1	–	–	–	CC(C)C(=O)O [Isobutyric]	–
2.5	2.4	2.4	2.2	–	4 times	–	CC(O)C(=O)O (stereo not drawn) [Lactic, lactic acid]	–
1.1	1.0	1.0	1.0	–	–	–	O=C(O)/C=C\C(=O)O [Maleic]	–
4.0	4.3	4.0	4.0	–	–	–	O=C(O)CC(O)C(=O)O (stereo not drawn) [Malic]	3.22
3.6	1.5	1.3	1.1	–	–	–	O=C(O)CC(=O)O [Malonic]	–
4.3	4.0	4.0	4.1	–	–	about 2	O=C(O)CCC(=O)O [Succinic, succinic acid]	–
3.4	3.2	2.7	2.4	–	–	–	O=C(O)C(O)C(O)C(=O)O (stereo not drawn) [Tartaric]	–

Compound	TS in Equilibrium with Aqueous Solutions of (mol/kg) 0.05 [1]	TS in Equilibrium with Aqueous Solutions of (mol/kg) 0.2 [1]	TS in Equilibrium with Aqueous Solutions of (mol/kg) 0.3 [1]	TS in Equilibrium with Aqueous Solutions of (mol/kg) 0.475 [1]	temperature sensitivity [2]	product diluted compared with the feed [4]	uphill concentration factor [5]	pKa [3]
O=C(O)[C@H](O)[C@@H](O)[C@H](O)[C@H](O)CO [Gluconic]	2.1	2.3	2.4	2.6	–	–	–	–
O=C(O)CCCC(=O)O [Glutaric]	3.9	4.5	4.5	4.4	–	–	–	4.4
